Laboratory results as given in patent US10000456B2, “Polycyclic compounds as lysophosphatidic acid receptor antagonists” (AMIRA PHARMACEUTICALS, INC., priority 2009, dated 2018).

Tested on: A2058 human melanoma cells
Test: LPA1 chemotaxis assay
Assay type: cell-based
Settings: LPA 100 nM, read-out: IC50, inhibition of LPA-driven chemotaxis
Method: Chemotaxis of the A2058 human melanoma cells was measured using the Neuroprobe CHEMOTX® System plates ([…], 5.7 mm diameter sites). The filter sites were coated with 0.001% fibronectin (Sigma) in 20 mM Hepes, pH 7.4 and allowed to dry. A2058 cells were serum-starved for 24 hours, then harvested with Cell Stripper and resuspended in DMEM containing 0.1% fatty-acid-free bovine serum albumin (BSA) to a concentration of 1×10^6/ml. Cells were mixed with an equal volume of test compound (2×) in DMEM containing 0.1% fatty-acid-free BSA and incubated at 37° C. for 15 minutes. LPA (100 nM in DMEM containing 0.1% fatty-acid-free BSA) or vehicle was added to each well of the lower chamber and 50 μl of the cell suspension/test compound mix was applied to the upper portion of the CHEMOTX® plate. Plates were incubated at 37° C. for three hours and then the cells removed from the upper portion by rinsing with PBS and scraping. The filter was dried then stained with HEMA 3® Staining System (Fisher Scientific). The absorbance of the filter was read at 590 nm and IC50s were determined using SYMYX® Assay Explorer.

Q: For `Cc1noc(-c2ccc(-c3ccc(C4(C(=O)O)CC4)cc3)cc2)c1Nc1cccc(Cc2ccccc2F)n1` [Compound 45, 1-(4′-{4-[6-(2-Fluoro-benzyl)-pyridin-2-ylamino]-3-methyl-isoxazol-5-yl}-biphenyl-4-yl)-cyclopropanecarboxylic acid], which IC50 is on record?
A: The IC50 was < 100 nM.

Q: How did the IC50 turn out when `Cc1noc(-c2ccc(-c3ccc(C4(C(=O)O)CC4)cc3)cc2)c1Nc1cccc(Cc2cccc(F)c2)n1` [Compound 46, 1-(4′-{4-[6-(3-Fluoro-benzyl)-pyridin-2-ylamino]-3-methyl-isoxazol-5-yl}-biphenyl-4-yl)-cyclopropanecarboxylic acid] was run?
A: Its IC50 is < 100 nM.

Q: Which IC50 does the source give for `Cc1noc(-c2ccc(-c3ccc(C4(C(=O)O)CC4)cc3)cc2)c1Nc1cccc(Cc2ccc(F)cc2)n1` [Compound 47, 1-(4′-{4-[6-(4-Fluoro-benzyl)-pyridin-2-ylamino]-3-methyl-isoxazol-5-yl}-biphenyl-4-yl)-cyclopropanecarboxylic acid] here?
A: Its IC50 is < 100 nM.

Q: How did the IC50 turn out when `Cc1noc(-c2ccc(-c3ccc(C4(C(=O)O)CC4)cc3)cc2)c1Nc1cccc(Cc2ccccc2)c1` [Compound 49, 1-{4′-[4-(3-Benzyl-phenylamino)-3-methyl-isoxazol-5-yl]-biphenyl-4-yl}-cyclopropanecarboxylic acid] was run?
A: The IC50 was < 100 nM.

Q: For `Cc1noc(-c2ccc(-c3ccc(C4(C(=O)O)CC4)cc3)cc2)c1Nc1cccc(-c2cccc(F)c2)n1` [Compound 52, 1-(4′-{4-[6-(3-Fluoro-phenyl)-pyridin-2-ylamino]-3-methyl-isoxazol-5-yl}-biphenyl-4-yl)-cyclopropanecarboxylic acid], which IC50 is on record?
A: The IC50 was < 100 nM.

Q: With `Cc1noc(-c2ccc(-c3ccc(C4(C(=O)O)CC4)cc3)cc2)c1Nc1cncc(-c2ccccc2)c1` [Compound 58, 1-{4′-[3-Methyl-4-(5-phenyl-pyridin-3-ylamino)-isoxazol-5-yl]-biphenyl-4-yl}-cyclopropanecarboxylic acid] as the compound, how does the IC50 read?
A: The IC50 was < 100 nM.

Q: How did the IC50 turn out when `Cc1noc(-c2ccc(-c3ccc(C4(C(=O)O)CC4)cc3)cc2)c1Nc1cncc(-c2cccc(F)c2)c1` [Compound 59, 1-(4′-{4-[5-(3-Fluoro-phenyl)-pyridin-3-ylamino]-3-methyl-isoxazol-5-yl}-biphenyl-4-yl)-cyclopropanecarboxylic acid] was run?
A: Its IC50 is < 100 nM.

Q: With `Cc1noc(-c2ccc(-c3ccc(C4(C(=O)O)CC4)cc3)cc2)c1Nc1cccc(-c2ccccc2Cl)n1` [Compound 60, 1-(4′-{4-[6-(2-Chloro-phenyl)-pyridin-2-ylamino]-3-methyl-isoxazol-5-yl}-biphenyl-4-yl)-cyclopropanecarboxylic acid] as the compound, how does the IC50 read?
A: Its IC50 is < 100 nM.

Q: For `Cc1noc(-c2ccc(-c3ccc(C4(C(=O)O)CC4)cc3)cc2)c1Nc1cncc(-c2ccccc2Cl)c1` [Compound 64, 1-(4′-{4-[5-(2-Chloro-phenyl)-pyridin-3-ylamino]-3-methyl-isoxazol-5-yl}-biphenyl-4-yl)-cyclopropanecarboxylic acid], which IC50 is on record?
A: The IC50 was < 100 nM.

Q: How did the IC50 turn out when `Cc1noc(-c2ccc(-c3ccc(C4(C(=O)O)CC4)cc3)cc2)c1Nc1nccc(-c2ccccc2)n1` [Compound 66, 1-{4′-[3-Methyl-4-(4-phenyl-pyrimidin-2-ylamino)-isoxazol-5-yl]-biphenyl-4-yl}-cyclopropanecarboxylic acid] was run?
A: The IC50 was < 100 nM.

Q: Which IC50 does the source give for `Cc1noc(-c2ccc(-c3ccc(C4(C(=O)O)CC4)cc3)cc2)c1Nc1cc(-c2ccccc2)ccn1` [Compound 67, 1-{4′-[3-Methyl-4-(4-phenyl-pyridin-2-ylamino)-isoxazol-5-yl]-biphenyl-4-yl}-cyclopropanecarboxylic acid] here?
A: Its IC50 is < 100 nM.

Q: With `Cc1noc(-c2ccc(-c3ccc(C4(C(=O)O)CC4)cc3)cc2)c1Nc1cncc(-c2cccc(C(F)(F)F)c2)c1` [Compound 68, 1-(4′-{3-Methyl-4-[5-(3-trifluoromethyl-phenyl)-pyridin-3-ylamino]-isoxazol-5-yl}-biphenyl-4-yl)-cyclopropanecarboxylic acid] as the compound, how does the IC50 read?
A: Its IC50 is < 100 nM.
